According to ChEMBL document CHEMBL3232855, “The discovery of N-((2H-tetrazol-5-yl)methyl)-4-((R)-1-((5r,8R)-8-(tert-butyl)-3-(3,5-dichlorophenyl)-2-oxo-1,4-diazaspiro[4.5]dec-3-en-1-yl)-4,4-dimethylpentyl)benzamide (SCH 900822): a potent and selective glucagon receptor antagonist” (J Med Chem, 2014):
Activity calls are given as the source filed them. The rule behind the calls is not given here.

How the values were obtained:
[1] = target: Kappa-type opioid receptor (Homo sapiens) (UniProt P41145); test: Binding affinity to kappa opioid receptor (unknown origin) at 10 uM by agonist displacement assay relative to control
Sequence of Kappa-type opioid receptor (Homo sapiens) (P41145 whole entry): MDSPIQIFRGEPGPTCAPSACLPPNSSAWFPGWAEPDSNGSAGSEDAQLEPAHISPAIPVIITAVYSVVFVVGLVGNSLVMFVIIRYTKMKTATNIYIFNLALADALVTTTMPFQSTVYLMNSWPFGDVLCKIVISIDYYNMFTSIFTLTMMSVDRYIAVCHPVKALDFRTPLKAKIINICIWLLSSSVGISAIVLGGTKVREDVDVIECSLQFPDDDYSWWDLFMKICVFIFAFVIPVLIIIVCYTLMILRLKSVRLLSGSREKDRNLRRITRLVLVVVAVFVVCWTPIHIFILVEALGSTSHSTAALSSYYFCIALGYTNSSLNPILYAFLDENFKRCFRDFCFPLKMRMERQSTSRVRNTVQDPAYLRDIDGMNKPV

Glucagon receptor [2] = target: Glucagon receptor (Homo sapiens, UniProt P47871); test: Antagonist activity at human GCGR expressed in CHO cells assessed as inhibition of glucagon-stimulated cAMP production preincubated for 30 mins followed by glucagon induction measured after 45 mins by LANCE assay; format: functional, cell-based
Sequence of Glucagon receptor (Homo sapiens, UniProt P47871) (P47871 whole entry): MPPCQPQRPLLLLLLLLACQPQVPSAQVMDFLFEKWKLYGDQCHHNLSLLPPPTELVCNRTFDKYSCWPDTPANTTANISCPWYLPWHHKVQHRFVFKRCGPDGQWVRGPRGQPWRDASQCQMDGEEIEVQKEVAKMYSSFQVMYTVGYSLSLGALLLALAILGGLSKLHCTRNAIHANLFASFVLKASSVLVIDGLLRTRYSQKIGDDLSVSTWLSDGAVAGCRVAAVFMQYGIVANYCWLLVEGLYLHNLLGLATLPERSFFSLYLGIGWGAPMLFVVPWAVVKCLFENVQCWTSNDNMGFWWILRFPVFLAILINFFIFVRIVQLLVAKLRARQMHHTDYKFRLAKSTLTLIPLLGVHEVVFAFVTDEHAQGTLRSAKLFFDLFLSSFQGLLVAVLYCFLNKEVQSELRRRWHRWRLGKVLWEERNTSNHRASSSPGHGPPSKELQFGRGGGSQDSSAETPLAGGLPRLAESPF

Glucagon receptor [3] = target: Glucagon receptor (Mus musculus, UniProt Q61606); format: cell membranes, Liver, Membrane
Sequence of Glucagon receptor (Mus musculus, UniProt Q61606) (Q61606 whole entry): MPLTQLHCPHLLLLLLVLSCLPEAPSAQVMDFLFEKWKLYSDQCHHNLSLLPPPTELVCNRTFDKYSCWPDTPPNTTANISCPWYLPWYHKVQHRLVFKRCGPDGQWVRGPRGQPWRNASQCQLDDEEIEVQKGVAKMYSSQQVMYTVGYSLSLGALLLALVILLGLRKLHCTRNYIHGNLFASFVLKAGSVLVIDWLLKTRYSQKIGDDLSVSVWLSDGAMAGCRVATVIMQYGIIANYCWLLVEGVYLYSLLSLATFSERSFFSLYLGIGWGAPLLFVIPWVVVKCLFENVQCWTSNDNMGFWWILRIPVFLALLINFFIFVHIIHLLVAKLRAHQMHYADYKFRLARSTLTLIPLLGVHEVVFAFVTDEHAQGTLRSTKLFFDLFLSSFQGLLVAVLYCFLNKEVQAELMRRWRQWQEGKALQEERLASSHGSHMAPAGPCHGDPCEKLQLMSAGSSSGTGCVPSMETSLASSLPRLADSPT
Description: Displacement of [125I]-glucagon from GCGR in mouse liver membranes after 60 mins by scintillation counting analysis

[4] = target: Glucagon-like peptide 1 receptor (Homo sapiens, UniProt P43220); test: Antagonist activity at human GLP-1R expressed in CHO cells assessed as inhibition of GLP-1-stimulated cAMP production preincubated for 30 mins followed by GLP-1 induction measured after 45 mins by LANCE assay; format: functional, cell-based
Sequence of Glucagon-like peptide 1 receptor (P43220 whole entry): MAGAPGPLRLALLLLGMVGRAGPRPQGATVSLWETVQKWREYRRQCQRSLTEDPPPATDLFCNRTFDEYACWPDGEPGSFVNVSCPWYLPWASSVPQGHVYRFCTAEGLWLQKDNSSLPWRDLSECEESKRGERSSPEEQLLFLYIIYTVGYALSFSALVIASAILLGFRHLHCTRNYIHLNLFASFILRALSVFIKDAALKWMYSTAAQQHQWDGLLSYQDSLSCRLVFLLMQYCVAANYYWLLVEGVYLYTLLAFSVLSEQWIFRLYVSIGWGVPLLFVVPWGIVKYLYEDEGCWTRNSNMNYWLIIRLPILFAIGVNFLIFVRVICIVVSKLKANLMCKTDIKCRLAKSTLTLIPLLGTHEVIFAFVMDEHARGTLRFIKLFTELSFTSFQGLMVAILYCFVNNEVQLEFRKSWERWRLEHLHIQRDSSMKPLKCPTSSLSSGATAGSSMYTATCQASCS

[5] = Plasma clearance in mouse at 3 mg/kg, iv; format: ADME, organism-based; parameters: dose 3 mg/kg, route intravenous
[6] = Plasma clearance in rat at 3 mg/kg, iv; format: ADME, organism-based; parameters: dose 3 mg/kg, route intravenous
[7] = Plasma clearance in dog at 1 mg/kg, iv; format: ADME, organism-based, Canis lupus familiaris; parameters: dose 1 mg/kg, route intravenous
[8] = Plasma clearance in monkey at 3 mg/kg, iv; format: ADME, organism-based, Macaca mulatta; parameters: dose 3 mg/kg, route intravenous; details: rhesus monkey
[9] = Volume of distribution at steady state in rat at 3 mg/kg, iv; format: ADME, organism-based; parameters: dose 3 mg/kg, route intravenous; details: in vivo, read-out: Vdss
[10] = Volume of distribution at steady state in dog at 1 mg/kg, iv; format: ADME, organism-based, Canis lupus familiaris; parameters: dose 1 mg/kg, route intravenous; details: in vivo, read-out: Vdss
[11] = Volume of distribution at steady state in monkey at 3 mg/kg, iv; format: ADME, organism-based, Macaca mulatta; parameters: dose 3 mg/kg, route intravenous; details: rhesus monkey, in vivo, read-out: Vdss
[12] = Half life in mouse at 3 mg/kg, iv; format: ADME, organism-based; parameters: dose 3 mg/kg, route intravenous; details: in vivo
[13] = Half life in rat at 3 mg/kg, iv; format: ADME, organism-based; parameters: dose 3 mg/kg, route intravenous; details: in vivo
[14] = Half life in dog at 1 mg/kg, iv; format: ADME, organism-based, Canis lupus familiaris; parameters: dose 1 mg/kg, route intravenous; details: in vivo
[15] = Half life in monkey at 3 mg/kg, iv; format: ADME, organism-based, Macaca mulatta; parameters: dose 3 mg/kg, route intravenous; details: rhesus monkey, in vivo
Mus musculus [16] = test: Dose-normalized AUC in mouse at 3 mg/kg, po; format: ADME, organism-based; parameters: dose 3 mg/kg, route oral; details: in vivo
Rattus norvegicus = test: Dose-normalized AUC in rat at 3 mg/kg, po; format: ADME, organism-based; parameters: dose 3 mg/kg, route oral; details: in vivo
Canis familiaris = test: Dose-normalized AUC in dog at 5 mg/kg, po; format: ADME, organism-based, Canis lupus familiaris; parameters: dose 5 mg/kg, route oral; details: in vivo
Rhesus monkey = test: Dose-normalized AUC in monkey at 3 mg/kg, po; format: ADME, organism-based, Macaca mulatta; parameters: dose 3 mg/kg, route oral; details: in vivo
[17] = Oral bioavailability in mouse at 3 mg/kg; format: ADME, organism-based; details: in vivo
[18] = Oral bioavailability in dog at 5 mg/kg; format: ADME, organism-based, Canis lupus familiaris; details: in vivo
[19] = Oral bioavailability in monkey at 3 mg/kg; format: ADME, organism-based, Macaca mulatta; details: rhesus monkey, in vivo
[20] = target: T1, Type-1 angiotensin II receptor (Homo sapiens) (UniProt P30556); test: Binding affinity to AT1 receptor (unknown origin) at 10 uM by antagonist displacement assay relative to control
T1 sequence (whole entry): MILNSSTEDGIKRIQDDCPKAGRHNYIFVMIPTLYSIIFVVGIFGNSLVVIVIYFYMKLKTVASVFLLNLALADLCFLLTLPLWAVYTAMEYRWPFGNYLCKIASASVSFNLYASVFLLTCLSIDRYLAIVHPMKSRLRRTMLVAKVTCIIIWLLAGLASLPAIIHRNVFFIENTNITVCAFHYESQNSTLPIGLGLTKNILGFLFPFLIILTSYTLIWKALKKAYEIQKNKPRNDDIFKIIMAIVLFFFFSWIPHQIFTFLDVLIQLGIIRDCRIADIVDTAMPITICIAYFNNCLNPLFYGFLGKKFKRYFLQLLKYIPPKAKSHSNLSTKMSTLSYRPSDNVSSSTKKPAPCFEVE

[21] = target: T2, Gastric inhibitory polypeptide receptor (Homo sapiens, UniProt P48546); test: Antagonist activity at human GIPR assessed as inhibition of cAMP production; format: functional
T2 sequence (P48546 whole entry): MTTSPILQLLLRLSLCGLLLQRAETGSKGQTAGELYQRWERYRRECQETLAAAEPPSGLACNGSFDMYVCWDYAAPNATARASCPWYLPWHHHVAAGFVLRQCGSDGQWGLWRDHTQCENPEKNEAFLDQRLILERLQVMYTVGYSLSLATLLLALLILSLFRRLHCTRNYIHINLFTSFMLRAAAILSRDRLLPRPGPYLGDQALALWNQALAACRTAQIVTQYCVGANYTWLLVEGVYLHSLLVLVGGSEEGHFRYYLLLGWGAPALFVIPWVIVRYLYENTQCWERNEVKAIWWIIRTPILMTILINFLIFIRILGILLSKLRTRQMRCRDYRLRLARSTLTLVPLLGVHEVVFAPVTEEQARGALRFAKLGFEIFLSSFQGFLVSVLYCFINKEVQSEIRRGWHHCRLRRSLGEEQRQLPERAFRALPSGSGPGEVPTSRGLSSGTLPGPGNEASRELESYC

Mus musculus [22] = test: Antidiabetic activity in diet-induced obese ICR mouse model assessed as decrease in fasting blood glucose level at 3 to 10 mg/kg, po measured at 4 hrs by glucometer; format: functional, organism-based
Mus musculus [23] = test: Antidiabetic activity in diet-induced obese ICR mouse model assessed as decrease in nonfasting blood glucose level at 3 to 10 mg/kg, po measured at 24 hrs by glucometer; format: functional, organism-based
[24] = Plasma concentration in diet-induced obese ICR mouse model at 3 mg/kg, po measured at 24 hrs by HPLC/MS/MS analysis; format: ADME, organism-based; parameters: dose 3 mg/kg, route oral
[25] = Plasma concentration in diet-induced obese ICR mouse model at 10 mg/kg, po measured at 24 hrs by HPLC/MS/MS analysis; format: ADME, organism-based; parameters: dose 10 mg/kg, route oral
[26] = Plasma concentration in streptozotocin-induced ICR mouse type-2 diabetic model at 3 mg/kg, po measured at 8 hrs by HPLC/MS/MS analysis; format: ADME, organism-based; parameters: dose 3 mg/kg, route oral
[27] = Plasma concentration in streptozotocin-induced ICR mouse type-2 diabetic model at 10 mg/kg, po measured at 8 hrs by HPLC/MS/MS analysis; format: ADME, organism-based; parameters: dose 10 mg/kg, route oral
[28] = Plasma concentration in streptozotocin-induced ICR mouse type-2 diabetic model at 30 mg/kg, po measured at 8 hrs by HPLC/MS/MS analysis; format: ADME, organism-based; parameters: dose 30 mg/kg, route oral
Mus musculus [29] = test: Toxicity in streptozotocin-induced ICR mouse type-2 diabetic model assessed as effect on body weight at 3 to 30 mg/kg, po after 24 hrs; format: organism-based; parameters: dose 3-30 mg/kg, route oral; details: in vivo
[30] = target: T3, Adenosine receptor A3 (Homo sapiens) (UniProt P0DMS8); details: 10 uM
T3 sequence (whole entry): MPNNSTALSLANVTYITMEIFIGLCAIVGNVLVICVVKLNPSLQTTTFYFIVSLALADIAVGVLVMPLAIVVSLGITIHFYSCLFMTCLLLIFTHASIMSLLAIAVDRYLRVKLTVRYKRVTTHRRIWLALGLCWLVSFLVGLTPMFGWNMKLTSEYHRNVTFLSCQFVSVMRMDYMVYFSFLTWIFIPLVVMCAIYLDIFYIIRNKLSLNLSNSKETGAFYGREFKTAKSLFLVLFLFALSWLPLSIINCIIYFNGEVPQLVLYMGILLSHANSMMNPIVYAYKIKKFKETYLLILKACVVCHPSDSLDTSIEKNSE
Description: Binding affinity to adenosine A3 receptor (unknown origin) at 10 uM by agonist displacement assay relative to control

Compound `CC(C)(C)CC[C@H](c1ccc(C(=O)NCc2nn[nH]n2)cc1)N1C(=O)C(c2cc(Cl)cc(Cl)c2)=N[C@]12CC[C@@H](C(C)(C)C)CC2` has an inhibition [1] of 75%, an IC50 (Glucagon receptor [2]) of 46 nM and an IC50 (Glucagon receptor [3]) of 130 nM. For the same compound, the IC50 [4] was > 10000 nM, the clearance [5] was 1.4 mL/min/kg and the clearance [6] was 1.8 mL/min/kg. It also gave a clearance [7] of 0.3 mL/min/kg, a clearance [8] of 0.6 mL/min/kg and a Vd [9] of 1.3 L/kg. The Vd [10] was 0.1 L/kg, the Vd [11] was 0.4 L/kg and the half-life [12] was 11 h. It also gave a half-life [13] of 8.3 h, a half-life [14] of 6.1 h and a half-life [15] of 7.9 h. The AUC/dose (Mus musculus [16]) was 6 µM·h/mg/kg, the AUC/dose (Rattus norvegicus) was 2.2 µM·h/mg/kg and the AUC/dose (Canis familiaris) was 30 µM·h/mg/kg. For the same compound, the AUC/dose (Rhesus monkey) was 22 µM·h/mg/kg, the bioavailability [17] was 31% and the bioavailability [18] was 32%. The bioavailability [19] was 49%, the inhibition [20] was 93% and the IC50 [21] was 2100 nM. For the same compound, the Activity (Mus musculus [22]) was “Active”, the Activity (Mus musculus [23]) was “Active” and the concentration at 24 h [24] was 430 nM. The concentration at 24 h [25] was 810 nM, the concentration at 8 h [26] was 1100 nM and the concentration at 8 h [27] was 4500 nM. For the same compound, the concentration at 8 h [28] was 8500 nM, the Activity (Mus musculus [29]) was “Non-toxic” and the inhibition [30] was 96%.
